Like-named read-outs stand apart in the source and are kept apart here.
Experiments:
[1] = biological target: T1, PLK1 phosphorylation of TCTP in MV4-11 and HL-60 (Homo sapiens, UniProt P53350); test: pTCTP in AML cell lines MV4-11 and HL-60, western blot (FIG. 2C); assay type: cell-based; conditions: MV4-11 and HL-60, 15 minutes; onvansertib 0.1 or 0.5 μM, cytarabine 10 or 100 nM, decitabine 0.2 or 1 μM
T1 construct: endogenous in cells; host or cells: MV4-11 and HL-60 AML cell lines
Method: (§1) Protein extracts were prepared from PBMC and cell lines using M-PER buffer (ThermoFisher) with 150 mM NaCl and 1× protease and phosphatase inhibitors cocktails (ThermoFisher). Protein concentration was measured with the Pierce BCA protein assay kit (ThermoFisher).
Western blots were performed as Simple Western™ assays using the Wes system (ProteinSimple), a combination of capillary electrophoresis and immunodetection techniques, following the manufacturer's protocols. Briefly, extracts with equal protein concentration were mixed with 0.1× sample buffer and 5× fluorescent master mix. Denatured protein samples, biotinylated ladder (ProteinSimple), primary antibodies, horseradish peroxidase (HRP)-conjugated secondary antibody (ProteinSimple), chemiluminescence substrate and wash buffer were dispensed into respective wells of the assay plate and placed in Wes equipment. Primary antibodies were purchased from Cell Signaling Technology: phospho-TCTP-Ser46 (#5251) and TCTP (#5128), and used at a concentration of 1:50. Quantitative analysis was performed using Compass software (ProteinSimple). […]
AML cell lines MV4-11 and HL-60 were treated for 15 minutes with onvansertib (PCM-075) (0.1 or 0.5 μM), cytarabine (10 or 100 nM) or decitabine (0.2 or 1 μM). Proteins were then extracted from the cells and assessed for pTCTP.

[2] = tested on: cell lines, both from solid as well as hematologic tumors; conditions: large number of cell lines, solid and hematologic tumors; cited from earlier work
[3] = tested on: advanced/metastatic solid tumors; conditions: adult subjects; cited from earlier work
[4] = biological target: T2, PLK1 phosphorylation of TCTP (Homo sapiens, UniProt P53350); test: pTCTP (Ser46) in patient blood PBMC before and 3 hours after onvansertib; assay type: in vivo; design: Protein extracts were prepared from PBMC and cell lines using M-PER buffer; from tissue; host or cells: peripheral blood mononuclear cells from AML patients' blood; conditions: for decrease in pTCTP in patient blood: three patients, as early as three hours
Method: Determination of phosphorylation of serine 46 of TCTP in blood was as follows. Peripheral blood mononuclear cells (PBMC) were isolated from a Cellsave blood tube (Menarini Silicon Biosystems) using Leucosep centrifuge tubes (VWR) and Histopaque-1077 (Sigma) according to the manufacturer's recommendations.
as §1
Western blots were performed as Simple Western™ assays using the Wes system (ProteinSimple), a combination of capillary electrophoresis and immunodetection techniques, following the manufacturer's protocols. Briefly, extracts with equal protein concentration were mixed with 0.1× sample buffer and 5× fluorescent master mix. Denatured protein samples, biotinylated ladder (ProteinSimple), primary antibodies, horseradish peroxidase (HRP)-conjugated secondary antibody (ProteinSimple), chemiluminescence substrate and wash buffer were dispensed into respective wells of the assay plate and placed in Wes equipment. Primary antibodies were purchased from Cell Signaling Technology: phospho-TCTP-Ser46 (#5251) and TCTP (#5128), and used at a concentration of 1:50. Quantitative analysis was performed using Compass software (ProteinSimple). Signal intensity (area) of pTCTP was normalized to the peak area of TCTP and reported as % pTCTP.
PLK1 inhibition in patients was assessed in blood taken 3-hours following administration of onvansertib at peak concentration (Cmax).
Blood samples were collected before, and 3 hours after, onvansertib treatment from patients enrolled in the trial described in Example 1. The onvansertib treatments were 12, 18, 27, or 40 mg/m^2. pTCTP and TCTP were assessed by Western-Blot and % pTCTP (pTCTP/TCTP) was quantified.
In these studies, biomarker positivity was defined as ≥50% decrease in % pTCTP from T=0 to T=3h.

cancer cell lines = conditions: cited from earlier work
[5] = biological target: T2, PLK1 phosphorylation of TCTP; test: Inhibition of pTCTP in vitro, western blot (FIG. 2B)
[6] = cited from earlier work; for half-life: oral administration
[7] = tested on: acute myeloid leukemia (AML); test: Clinical response of AML patients, trial NCT03303339 (leukemic cells in blood and bone marrow); assay type: in vivo, human
Source text: Patient data provided herein is from patients in clinical trial NCT03303339, Onvansertib in Combination With Either Low-dose Cytarabine (LDAC) or Decitabine in Adult Patients With Acute Myeloid Leukemia (AML) (ClinicalTrials.gov).
Responders were defined as patients showing a decrease in circulating and bone marrow blasts during treatment.

[8] = tested on: disseminated model of AML; conditions: combination therapy with cytarabine; cited from earlier work
xenograft tumor = conditions: mice, oral administration, well tolerated doses; cited from earlier work
PLK1 = PLK1 (Homo sapiens, UniProt P53350); conditions: versus previous PLK inhibitors; cited from earlier work
[9] = tested on: HT29 human colon adenocarcinoma xenografts; conditions: combination with irinotecan, compared to each agent alone; cited from earlier work
[10] = combination with LDAC or decitabine

T2 sequence (P53350 whole entry): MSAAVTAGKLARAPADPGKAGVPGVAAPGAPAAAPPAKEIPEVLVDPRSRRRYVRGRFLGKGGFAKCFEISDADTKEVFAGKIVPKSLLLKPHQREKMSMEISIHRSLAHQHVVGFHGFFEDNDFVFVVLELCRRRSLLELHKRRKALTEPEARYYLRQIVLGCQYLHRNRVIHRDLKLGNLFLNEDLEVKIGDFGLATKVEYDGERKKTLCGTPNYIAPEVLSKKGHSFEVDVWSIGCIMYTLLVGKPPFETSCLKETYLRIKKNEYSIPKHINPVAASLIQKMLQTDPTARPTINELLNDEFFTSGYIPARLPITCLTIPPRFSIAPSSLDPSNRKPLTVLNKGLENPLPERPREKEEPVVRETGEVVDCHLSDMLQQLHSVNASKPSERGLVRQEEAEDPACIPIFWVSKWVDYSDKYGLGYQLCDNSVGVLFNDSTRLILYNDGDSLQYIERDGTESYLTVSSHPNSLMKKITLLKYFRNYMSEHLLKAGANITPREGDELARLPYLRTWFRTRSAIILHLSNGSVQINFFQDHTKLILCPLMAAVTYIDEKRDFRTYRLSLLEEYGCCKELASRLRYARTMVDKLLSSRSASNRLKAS
T1 sequence (P53350 whole entry): as above
Sequence of PLK1 (P53350 whole entry): as above

With Nc1ccn([C@@H]2O[C@H](CO)[C@@H](O)[C@@H]2O)c(=O)n1 [cytarabine] the “inhibition of pTCTP” value [1] was “but not cytarabine or decitabine, inhibited pTCTP”.
In the case of CN1CCN(c2ccc(OC(F)(F)F)c(Nc3ncc4c(n3)-c3c(c(C(N)=O)nn3CCO)CC4)c2)CC1 [onvansertib, 1-(2-hydroxyethyl)-8-{[5-(4-methylpiperazin-1-yl)-2-(trifluoromethoxy)phenyl]amino}-4,5-dihydro-1H-pyrazolo[4,3-h] quinazoline-3-carboxamide], the “potency in proliferation assays” value [2] is given as “low nanomolar activity”, the “evaluable patients with stable disease” value [3] is given as 5 of 16 and the “recommended phase 2 dose” value [3] is given as 24 mg/m^2. For the same compound, the “decrease of pTCTP in cells of non-responders” value ([4]; 5 non-responders, higher dose 18 mg/m^2) was “did not show a decrease of pTCTP”, the “decrease in pTCTP” value ([4]; the one biomarker negative patient with objective response) was 40% and the “decrease in pTCTP in patient blood” value ([4]; onvansertib and LDAC) was “only the responder showed a decrease in pTCTP”. The “decrease in pTCTP in patient blood” value ([4]; onvansertib and decitabine) was “only the two responders showed a decrease in pTCTP”, the “mitotic cell-cycle arrest followed by apoptosis” value (cancer cell lines) was “potently causes a mitotic cell-cycle arrest followed by apoptosis” and the “inhibition of pTCTP in vitro” value [5] was “inhibits pTCTP in vitro, in a dose-dependent manner”. The half-life [6] was “about 24 hours”, the half-life ([6]; listed as Onvansertib) was about 24 h and the oral bioavailability ([6]; rodent and nonrodent species) was “good oral bioavailability”. For the same compound, the “biomarker positive patients with a decrease in BM blasts≥50%” value [7, 10] was “six out of the nine”, the “patients with complete response [CR] or CR with incomplete hematological recovery [CRi]” value [7, 10] was “Four” and the “patients exhibiting a response (decrease in leukemic cells in blood and bone marrow)” value ([7]; in combination with low-dose cytarabine (LDAC) or decitabine) was “Three of 6”. For the same compound, the “leukemic cells in bone marrow, decrease” value ([7]; patient 07-009, combination with decitabine) was 96% to 55%, the “leukemic cells in bone marrow, decrease” value ([7]; patient 07-011, combination with decitabine) was 55% to 15% and the survival of animals [8] was “prolonged survival”. The xenograft tumor growth (xenograft tumor) was “inhibits xenograft tumor growth”, the “selectivity for PLK1” value (PLK1) was “high selectivity for PLK1 only” and the tumor regression [9] was “enhanced tumor regression”. The “inhibition of pTCTP” value [1] was “inhibited pTCTP”.

From patent US12655462B2, “PLK1 target phosphorylation status and treatment of cancer with PLK1 inhibitors” (Cardiff Oncology, Inc., priority 2018, dated 2026)
